Assay results published in patent US7115708B2 (priority 2001, dated 2006).

Columns and labels:
[1] = test system: tumor patients; conditions: in vivo; cited from earlier work
[2] = test system: MCF-7
[3] = test system: MIA PaCa-2
[4] = test system: MIA PaCa-2; experiment: cells; conditions: Homo sapiens, MIA PaCa-2, read-out: Estimated IC50 (50% Inhibition Concentration)
[5] = test system: MCF-7; experiment: cells; conditions: Homo sapiens, MCF7, read-out: Estimated IC50 (50% Inhibition Concentration)

Compound	patients with stable tumor disease [1]	toxicity reported [1]	tumor patients with regressive disease [1] [%]	Estimated TGI (Total Growth Inhibition) [2] [µM]	Estimated TGI (Total Growth Inhibition) [3] [µM]	IC50 [4] [nM]	IC50 [5] [nM]
^90Y-DOTA-lanreotide	roughly 35%	No acute or chronic severe hematological toxicity	15	–	–	–	–
CO[C@@]12[C@H](COC(N)=O)C3=C(C(=O)C(C)=C(N)C3=O)N1C[C@@H]1N[C@@H]12 [Mitomycin]	–	–	–	0.18	0.15	28	35
